Source: patent US20210353701A1, “ULTRAVIOLET LIGHT-INDUCED INFLAMMATION SUPPRESSING AGENT COMPRISING ALTERNATIVE AUTOPHAGY INDUCING AGENT” (Shiseido Company, Ltd., priority 2018, published 2021)

How the values were obtained:
NHEK cells = assay: IL-1β production after ultraviolet irradiation in siRNA-treated NHEK cells (ELISA); format: cell-based, human; conditions: siRNA 200 nM; UV 290 to 315 nm, 15 mJ/cm^2; culture supernatant after 48 hours
Procedure: (§1) An Amaxa Human Keratinocyte Nucleofector Kit (Lonza) was used to transfect NHEK cells (8.0×10^5 cells) with siRNA to a final concentration of 200 nM. The knockdown efficiency was confirmed by the mRNA expression level of Atg5, Atg7 and Beclin1 using an RT-PCR method (FIGS. 2A, B and C). The RT-PCR primers used were primers by Sigma-Aldrich, and GAPDH (Sigma-Aldrich) was used as an internal standard for standardization of the expression levels.
The siRNA-treated NHEK cells were seeded into a 6-well plate and cultured for 24 hours. The medium was then discarded, PBS was exchanged, and irradiation was carried out with ultraviolet rays (290 to 315 nm) at a radiation intensity of 15 mJ/cm^2. Following ultraviolet irradiation, the medium was again exchanged and culturing was continued for 48 hours to obtain a culture supernatant. The IL-1β concentration of the obtained culture supernatant was evaluated using a Quantikine Human IL-1β ELISA Kit (R&D co.) (FIGS. 3A, B and C). Student's t-test was used as the statistical significance test.

Beclin1 = assay: siRNA knockdown efficiency by RT-PCR, Beclin1; format: cell-based, human; conditions: siRNA 200 nM in NHEK cells, GAPDH internal standard
Procedure: as §1

Atg7 = assay: siRNA knockdown efficiency by RT-PCR, Atg7; format: cell-based, human; conditions: siRNA 200 nM in NHEK cells, GAPDH internal standard
Procedure: as §1

Atg5 = assay: siRNA knockdown efficiency by RT-PCR, Atg5; format: cell-based, human; conditions: siRNA 200 nM in NHEK cells, GAPDH internal standard
Procedure: as §1

[1] = tested on: Normal human epidermal keratinocytes (NHEK); assay: IL-1β production after ultraviolet irradiation in NHEK treated with autophagy inhibitor or inducing agent (ELISA); format: cell-based; conditions: 3-MA 1 mM; UV 290 to 315 nm, 20 mJ/cm^2; culture supernatant after 48 hours
Procedure: Normal human epidermal keratinocytes (NHEK) (Kurabo Industries, Ltd.) were seeded in a 6-well plate and cultured to subconfluence using epidermal keratinocyte growth medium (EpiLife-KG2; Gibco Co). The medium was then exchanged with medium containing 3-methyladenine (3-MA) (by R&D Co., final concentration: 1 mM), as a known autophagy inhibitor and medium containing rapamycin (by Enzo Life Science, final concentration: 0.5 μM) as a known autophagy inducing agent, and culturing was continued for 3 hours. After culturing, the medium was discarded, PBS was added and irradiation was carried out with ultraviolet rays (290 to 315 nm) at a radiation intensity of 20 mJ/cm^2. Following ultraviolet irradiation, culturing was continued under the medium conditions described above including 3-MA or rapamycin, and after 48 hours the culture supernatant of each was obtained. The IL-1β concentration of the obtained culture supernatant was evaluated using a Quantikine Human IL-1β ELISA Kit (R&D co.) (FIGS. 1A and B). Statistical significance testing was conducted using Student's or Welch's t test.

Compound	IL-1β production induced by ultraviolet ray (NHEK cells)	Beclin1 expression (mRNA) (Beclin1)	Atg7 expression (mRNA) (Atg7)	Atg5 expression (mRNA) (Atg5)	IL-1β concentration after ultraviolet irradiation, increase [1]
Beclin1-targeted siRNA: siRNA for Beclin1 purchased from Invitrogen, SEQ ID NO: 5 and 6 (chain 1 CCAAUAAGAUGGGUCUGAAAUUUCA; chain 2 UGAAAUUUCAGACCCAUCUUAUUGG; listed as RNA, chemistry not given here)	significantly increased	suppressed			
Atg7-targeted siRNA: siRNA for Atg7 purchased from Invitrogen, SEQ ID NO: 3 and 4 (chain 1 GCCGUCAUUGCUGCAAGCAAGAGAA; chain 2 UUCUCUUGCUUGCAGCAAUGACGGC; listed as RNA, chemistry not given here)	unchanged		suppressed		
Atg5-targeted siRNA: siRNA for Atg5 purchased from Invitrogen, SEQ ID NO: 1 and 2 (chain 1 GGUUUGGACGAAUUCCAACUUGUUU; chain 2 AAACAAGUUGGAAUUCGUCCAAACC; listed as RNA, chemistry not given here)	unchanged			suppressed	
Cn1cnc(N)c2ncnc1-2 [3-methyladenine]					approximately 3 fold
